Several values for one entry are separate records, joined by “and”; a condition that tells them apart may be missing. Equal entries are not always repeated. Entries after “also recorded” stand apart in the source; their conditions may differ.
Assays:
[1] = tested on: serotonergic system (serum); test: Serum tryptophan, serotonin and monoamine oxidase activity in obesity model; assay type: in vivo, rats; conditions: zinc aspartate 4.5 mg/animal intragastrically every third day, week 10
Protocol: (§1) Animal serum was prepared from whole blood. […] Samples were centrifuged for 15 min at 2500 g.
(§2) The samples were reprecipitated by centrifugation.
(§3) University. Medicine. - 2000. - 1, No. 494. - P. 40-43.

[2] = Anthropometric values, amount and calorie content of food in high-fat diet induced obesity model; conditions: zinc aspartate 4.5 mg/animal intragastrically every third day; for BMI (g/cm^2) / Weight gain as of the end of the experiment (%): week 10
Description: White non-pedigree rats with an initial weight of 195-205±10 g were used in the experiment.
Before the start of the experiment, animals were maintained on a standard diet of the vivarium. To induce obesity in experimental animals, they were fed high-fat diet which consisted of standard feed (60%), lard (10%), chicken eggs (10%), sucrose (9%), peanuts (5%), dry milk (5%) and sunflower oil (1%) (1%) (see X. H. Shen et al., Exp. Biol. and Med. 235: 47-51 (2010)).
Animals in all groups were weighed once a week after an overnight fast. The amount of feed to be consumed by the animals was determined daily. At the end of a 10-week period of the development of obesity models, 24 hours after the last administration of the zinc isotope solution, animals were removed from their cages and decapitated.
The body mass index (BMI) (the ratio of body weight (g) to the square of body length (cm^2)) was calculated at the end of the experiment.
Animals with an initial weight of 195-205±10 g maintained on the standard diet of the vivarium before performing obesity models were used in the experiments.
Animals in all groups were weighed once a week after an overnight fast. The amount of feed to be consumed by the animals was determined daily.

[3] = Glucose tolerance test; assay type: in vivo, rats; parameters: Glucose tolerance test, 0 min (1 h after effector administration): unit not given here; conditions: for glucose levels in the glucose tolerance test: compared with the control group
Description: 5 animals were used within the same experimental group.

[4] = tested on: pro-inflammatory (IL-1, IL-6, IL-12, IFN-γ) and anti-inflammatory (IL-4, IL-10, TGF) cytokines; test: Cytokine profile in adipose tissue in obesity model (immunoenzyme method); assay type: in vivo, rats; conditions: zinc aspartate 4.5 mg/animal intragastrically every third day, week 10
Protocol: Adipose tissue was crushed using cold scissors then transferred to a homogenizer with a loose-fitting Teflon pestle. […] Primary homogenate thus obtained was centrifuged at 600 g for 15 minutes. The supernatant was carefully collected and re-centrifuged at 15,000 g for 15 minutes. The supernatant was then frozen and stored at -80°C until the experiments.
The antigen solution, previously diluted with 0.1 M NaHCO3 buffer, pH 9.6, to a concentration of 10 µg/ml, was incubated in the plate wells for 12 hours at 4°C. Unbound material was removed by washing the wells three times with TBS buffer, first with 0.05% Tween-20, then without Tween-20. Non-specific binding sites were blocked by adding a solution of 5% skim milk or a solution of 1% bovine serum albumin to the plate wells and incubating them for 60 minutes at 37°C. After incubation, the wells were washed three times with TBS, first with 0.05% Tween-20, then without Tween-20. Primary antibodies were diluted in TBS in accordance with the manufacturer's instructions and incubated with the antigen for 60 min at 37°C. After washing with TBS working buffer, first with the addition of 0.05% Tween-20, then without Tween-20, the conjugate of secondary antibodies was added to the wells and incubated for 60 min at 37°C. As with the primary antibodies, secondary antibodies were diluted in TBS in accordance with the manufacturer's instructions. After the washing procedure, phenyldiamine dihydrochloride as substrate in 0.05M phosphate-citrate buffer was added to each well, followed by the addition of 0.3% hydrogen peroxide. After 10 minutes, the reaction time needed for development, 2.5 n H2SO4 was added.
The absorbance at a wavelength of 492 nm was measured using a µQuant microplate spectrophotometer (BioTek Instruments).

[5] = Intraperitoneal administration of zinc preparations to intact rats (insulin, superoxide dismutase, islets of Langerhans, metals, body weight); assay type: in vivo; conditions: 7 injections; for accumulation of zinc in the kidney tissues / accumulation of zinc in the liver tissues: day 1 and day 7 after withdrawal
Protocol: The current dose was calculated by zinc.
The rat serum was prepared from whole blood.
The total kidney and liver homogenates were centrifuged at 600 g for 15 minutes.
The optical density was measured at 492 nm.

[6] = tested on: islets of Langerhans; test: Morpho-functional analysis of pancreas in obesity model; assay type: in vivo, rats; conditions: zinc aspartate 4.5 mg/animal intragastrically every third day
Description: After fixation, the pieces were rinsed in tap water. Then the material was dehydrated.
Dried preparations were stained with hematoxylin and eosin.

[7] = tested on: pro-inflammatory (IL-1, IL-6, IL-12, IFN-γ) and anti-inflammatory (IL-4, IL-10, TGF) cytokines; test: Serum cytokine profile in obesity model (immunoenzyme method); assay type: in vivo, rats; conditions: zinc aspartate 4.5 mg/animal intragastrically every third day
Protocol: as §1

[8] = tested on: products of oxidative modification of proteins; test: Serum levels of products of oxidative modification of proteins in obesity model; assay type: in vivo; conditions: DIO rats (high-fat diet), zinc aspartate 4.5 mg/animal intragastrically every third day, week 10
Protocol: as §1
Proteins were precipitated by adding a 20% TCA solution.

[9] = Serum lipids, alkaline phosphatase activity and albumin in obesity model; assay type: in vivo, rats; conditions: table is an image
Description: Test kit // Pliva-Lachema Diagnostika. - 2008.
The alkaline phosphatase activity was expressed in relative units.

[10] = tested on: central serotonergic system (brain); test: Indicators of the central serotonergic system (brain) in obesity model; assay type: in vivo, rats; conditions: zinc aspartate 4.5 mg/animal intragastrically every third day, week 10
Description: The animal's head was separated from the body and the skull was carefully cut. The brain was carefully lifted with a scalpel from the bony vault, all cranial nerves were amputated and the brain was removed from the skull. The brain was divided into two parts with a longitudinal incision made between the hemispheres.
(§4) The tissue : buffer ratio was 1:10.
as §2, §3
(§5) The supernatant was used in further studies.

[11] = tested on: superoxide dismutase; test: Serum superoxide dismutase activity in obesity model; assay type: in vivo; conditions: DIO rats (high-fat diet), zinc aspartate 4.5 mg/animal intragastrically every third day, week 10
Protocol: To measure superoxide dismutase activity, a method based on the ability of this enzyme to inhibit auto-oxidation of adrenaline was used.
Serum aliquots were added to microplate wells containing 0.2M bicarbonate buffer, pH 10. The reaction was initiated by adding 0.1% adrenaline solution in each well. A relevant volume of buffer was added to the "blank" wells to which no test sample was added. The optical density was measured at a wavelength of 347 nm using a µQuant microplate spectrophotometer (BioTek Instruments) at the 4th and 8th minute after adrenaline was added to the wells. The enzyme activity was expressed in relative units/min/mg.

[12] = tested on: peripheral serotonergic system (duodenum); test: Indicators of the peripheral serotonergic system (duodenum) in obesity model; assay type: in vivo, rats; conditions: zinc aspartate 4.5 mg/animal intragastrically every third day, week 10
Description: as §4
The samples were reprecipitated by centrifugation. […]
as §5

[13] = 3750 µg of zinc per 1 kg intraperitoneally every other day
[14] = 3750 µg of zinc per 1 kg intraperitoneally
[15] = rats having obesity (high-fat diet)
[16] = DIO rats (high-fat diet), week 10
[17] = control rats (standard diet), week 10

SMILES: N[C@@H](CC(=O)[O-])C(=O)[O-].[Zn+2] [^64Zne, zinc aspartate]
- Monoamine oxylase activity, RU/mg protein ([1]; DIO rats (high-fat diet)): 3.11±0.08 RU/mg protein
- Serotonin ([1]; DIO rats (high-fat diet)): 6.33 ± 0.51 µg/g
- Tryptophan ([1]; DIO rats (high-fat diet)): 66.65 ± 9.62 µg/g
- Monoamine oxylase activity, RU/mg protein ([1]; control rats (standard diet)): 2.52±0.03 RU/mg protein
- Serotonin ([1]; control rats (standard diet)): 10.16 ± 0.62 µg/g
- Tryptophan ([1]; control rats (standard diet)): 56.12 ± 7.58 µg/g
- Amount of food consumed ([2]; DIO rats (high-fat diet)): 29 g/day
- Calorie content of food ([2]; DIO rats (high-fat diet)): 823 kJ/day
- BMI (g/cm^2) ([2]; DIO rats (high-fat diet)): 0.65 g/cm^2
- Weight gain as of the end of the experiment (%) ([2]; DIO rats (high-fat diet)): 62%
- Amount of food consumed ([2]; control rats (standard diet)): 32 g/day
- Calorie content of food ([2]; control rats (standard diet)): 490 kJ/day
- BMI (g/cm^2) ([2]; control rats (standard diet)): 0.59 g/cm^2
- Weight gain as of the end of the experiment (%) ([2]; control rats (standard diet)): 59%
- glucose levels in the glucose tolerance test ([3]; listed as zinc isotope): a drop in glucose concentration; also recorded: a decrease in glucose levels
- glucose levels in the glucose tolerance test ([3]; listed as zinc isotope ^64Zn): a significant decrease in glucose levels
- IFN-γ level ([4]; DIO rats (high-fat diet)): 4.9±0.8 RU/mg protein
- IL-4 level ([4]; DIO rats (high-fat diet)): 5.1±1.2 RU/mg protein
- IL-6 level ([4]; DIO rats (high-fat diet)): 6.1±0.7 RU/mg protein
- IL-10 level ([4]; DIO rats (high-fat diet)): 5.8±0.8 RU/mg protein
- IL-12 level ([4]; DIO rats (high-fat diet)): 1.99±0.01 RU/mg protein
- TGF level ([4]; DIO rats (high-fat diet)): 5.2±0.9 RU/mg protein
- IFN-γ level ([4]; control rats (standard diet)): 5.0±0.8 RU/mg protein
- IL-1 level ([4]; control rats (standard diet)): 4.9±1.7 RU/mg protein
- IL-4 level ([4]; control rats (standard diet)): 5.0±0.4 RU/mg protein
- IL-6 level ([4]; control rats (standard diet)): 5.4±0.3 RU/mg protein
- IL-10 level ([4]; control rats (standard diet)): 4.9±0.2 RU/mg protein
- IL-12 level ([4]; control rats (standard diet)): 1.0±0.03 RU/mg protein
- TGF level ([4]; control rats (standard diet)): 5.1±0.6 RU/mg protein
- body weight of rats [5, 13]: a significant increase in the body weight
- serum insulin levels at day 7 after the withdrawal [5, 13]: insulin levels in the blood of animals increased
- serum insulin levels on the first day after the drug withdrawal [5, 13]: slightly higher than in the group of intact animals
- serum insulin levels at day 7 after the withdrawal ([5]; 3750 µg of zinc per 1 kg intraperitoneally every other day, listed as zinc isotope): a significant increase in the insulin levels
- accumulation of zinc in the kidney tissues [5, 14]: significantly increased
- accumulation of zinc in the liver tissues [5, 14]: significantly increased
- area of islets of Langerhans ([5]; 3750 µg of zinc per 1 kg intraperitoneally, day 7 after the last administration, compared to control group and zinc acetate group): a significant increase in the islet area
- cross-sectional surface area of the islets of Langerhans, increase compared with the obesity group [6, 15]: 43%
- cross-sectional surface area of the islets of Langerhans, lower than the control value [6, 15]: 29%
- cross-sectional surface area of the islets of Langerhans, decrease compared with the control group ([6]; rats that ate a standard diet): 39%
- IFN-γ level [7, 16]: 4.1±1.2 RU/mg protein
- IL-1 level [7, 16]: 4.2±0.4 RU/mg protein
- IL-4 level [7, 16]: 5.6±1.6 RU/mg protein
- IL-6 level [7, 16]: 5.1±0.4 RU/mg protein
- IL-10 level [7, 16]: 6.8±1.1 # RU/mg protein
- IL-12 level [7, 16]: 2.4±0.06 RU/mg protein
- TGF level [7, 16]: 5.7±0.3 # RU/mg protein
- TGF level ([7]; DIO rats (high-fat diet), week 10, listed as Zinc): 5.7±0.3 RU/mg protein
- IFN-γ level [7, 17]: 4.6±0.6 RU/mg protein
- IL-1 level [7, 17]: 3.5±0.7 RU/mg protein
- IL-4 level [7, 17]: 4.6±0.8 RU/mg protein
- IL-6 level [7, 17]: 4.3±0.2 RU/mg protein
- IL-10 level [7, 17]: 4.1±0.5 RU/mg protein
- IL-12 level [7, 17]: 0.3±0.04 RU/mg protein
- TGF level [7, 17]: 4.1±0.4 RU/mg protein
- Aldehyde-dinitrophenyl-hydrazones, nmol/mg protein [8]: 0.253±0.012 nmol/mg protein
- Ketone-dinitrophenyl-hydrazones, nmol/mg protein [8]: 0.200±0.024 nmol/mg protein
- levels of triglycerides, cholesterol and free fatty acids in the serum ([9]; animals fed a high-fat diet, zinc aspartate 2.25 mg/ml intragastrically in a volume of 2 ml): almost at the same level as in the control group
- alkaline phosphatase activity ([9]; serum, animals on high-fat diet treated intragastrically): higher than both in the group of diet-induced obesity models and in the control group
- albumin values ([9]; serum, obese animals treated intragastrically, versus untreated obese animals): had no effect on albumin values
- Indoleamine dioxygenase activity, µmol/mg protein ([10]; DIO rats (high-fat diet)): 2007 ± 175 µmol/mg protein
- Monoamine oxidase activity, RU/mg protein ([10]; DIO rats (high-fat diet)): 0.99±0.08 RU/mg protein
- Serotonin ([10]; DIO rats (high-fat diet)): 20.1 ± 3.21 µg/g
- Tryptophan ([10]; DIO rats (high-fat diet)): 31.56 ± 2.14 µg/g
- Tryptophan decarboxylase activity, RU/mg protein ([10]; DIO rats (high-fat diet)): 1.86 ± 0.37 RU/mg protein
- Tryptophan hydroxylase activity, RU/mg protein ([10]; DIO rats (high-fat diet)): 286 ± 17 RU/mg protein
- Indoleamine dioxygenase activity, µmol/mg protein ([10]; control rats (standard diet)): 1178 ± 267 µmol/mg protein
- Monoamine oxidase activity, RU/mg protein ([10]; control rats (standard diet)): 0.91 ±0.06 RU/mg protein
- Serotonin ([10]; control rats (standard diet)): 25.51 ± 2.71 µg/g
- Tryptophan ([10]; control rats (standard diet)): 87.71 ± 3.41 µg/g
- Tryptophan decarboxylase activity, RU/mg protein ([10]; control rats (standard diet)): 1.63 ± 0.41 RU/mg protein
- Tryptophan hydroxylase activity, RU/mg protein ([10]; control rats (standard diet)): 291 ± 29 RU/mg protein
- Superoxide dismutase activity, RU/ min per mg protein [11]: 4.5±0.43 # RU/ min per mg protein
- Indoleamine dioxygenase activity, µmol/mg protein ([12]; DIO rats (high-fat diet)): 1768 ± 274 µmol/mg protein
- Monoamine oxidase activity, RU/mg protein ([12]; DIO rats (high-fat diet)): 1.72 ±0.03 RU/mg protein
- Serotonin ([12]; DIO rats (high-fat diet)): 9.73 ± 0.82 µg/g
- Tryptophan ([12]; DIO rats (high-fat diet)): 89.4 ± 8.99 µg/g
- Tryptophan decarboxylase activity, RU/mg protein ([12]; DIO rats (high-fat diet)): 0.78 ± 0.19 RU/mg protein
- Tryptophan hydroxylase activity, RU/mg protein ([12]; DIO rats (high-fat diet)): 253 ± 58 RU/mg protein
- Indoleamine dioxygenase activity, µmol/mg protein ([12]; control rats (standard diet)): 2150 ± 231 µmol/mg protein
- Monoamine oxidase activity, RU/mg protein ([12]; control rats (standard diet)): 3.82 ±0.07 RU/mg protein
- Serotonin ([12]; control rats (standard diet)): 7.41 ± 0.54 µg/g
- Tryptophan ([12]; control rats (standard diet)): 154.7 ± 13.6 µg/g
- Tryptophan decarboxylase activity, RU/mg protein ([12]; control rats (standard diet)): 0.79 ± 0.22 RU/mg protein
- Tryptophan hydroxylase activity, RU/mg protein ([12]; control rats (standard diet)): 375 ± 61 RU/mg protein

SMILES: CC(=O)[O-].CC(=O)[O-].[Zn+2] [Zn acetate, Zn(CH3COO)2, reference compound]
- Glucose tolerance test, 0 min (1 h after effector administration) ([3]; blood glucose, fast overnight, dose: 5 mg/kg in a volume of 2 ml, individual animals 1-5, 5 mg/kg): 4.6 and 5.2 (2×) and 4.9 and 5.1
- Glucose tolerance test, 60 min (1 h after glucose administration) ([3]; blood glucose, glucose 3 g/kg body weight in 2 ml, dose: 5 mg/kg in a volume of 2 ml, individual animals 1-5, 5 mg/kg): 7.2 (2×) and 6.9 and 7.3 and 6.8
- glucose levels in the glucose tolerance test [3]: glucose levels also dropped, though not so strongly
- serum insulin levels at day 7 after the withdrawal [5, 13]: a drop in the insulin levels to the value of those of intact/control animals
- serum insulin levels on the first day after the drug withdrawal [5, 13]: a significant increase
- accumulation of zinc in the kidney tissues [5, 14]: significantly increased
- accumulation of zinc in the liver tissues [5, 14]: significantly increased
